Values of other authors in paper PMC8617627, “Novel DYRK1A Inhibitor Rescues Learning and Memory Deficits in a Mouse Model of Down Syndrome” (Pharmaceuticals, 2021).
Where two headings read alike, the source gives them in different places.

Test system: 139-protein kinase panel
Conditions: no reference given, cited from earlier work

Row | SMILES | GINI-index (comparison value for harmine) | GINI-index (comparison value for staurosporine, with 10 uM ATP)
1 | COc1ccc2c(c1)[nH]c1c(C)nccc12 [harmine] | 0.506 | 
2 | CN[C@@H]1C[C@H]2O[C@@](C)([C@@H]1OC)n1c3ccccc3c3c4c(c5c6ccccc6n2c5c31)C(=O)NC4 [staurosporine] |  | 0.093
